How the values were obtained:
[1] = target: T1, syntenin‐PDZ tandem (without C‐terminal domain) (Homo sapiens, UniProt O00560); experiment: Surface plasmon resonance (BIAcore), syntenin PDZ tandem; format: binding; conditions: compound in PBS, read-out: apparent KD, syntenin‐PDZ tandem (without C‐terminal domain)
T1 construct: made in house; host or cells: Biotin XCell F' E. coli cells
T1 sequence (O00560 107-275): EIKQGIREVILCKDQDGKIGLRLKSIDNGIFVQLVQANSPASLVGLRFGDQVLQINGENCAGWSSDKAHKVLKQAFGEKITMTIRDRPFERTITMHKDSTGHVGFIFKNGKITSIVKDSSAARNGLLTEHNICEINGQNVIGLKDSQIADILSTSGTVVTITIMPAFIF
Protocol: All SPR experiments were conducted with a BIAcore T200 instrument (GE Healthcare), at 25°C. A total of 8000 resonance units (RU) of biotinylated ligands (N‐terminal 6xHis tagged biotinylated syntenin tandem, syntenin tandem with C terminus, GRASP55 tandem or GST as control) were immobilized on a streptavidin‐sensor chip (GE Healthcare). Analytes (C58 and SyntOFF compounds) were perfused at 30 µl per min in running buffer (10 mM HEPES pH 7.4, 150 mM NaCl, 0.005% Tween20) at different concentrations. The reference channel was N‐terminal 6xHis tagged biotinylated GST protein. The injection time was 240 s, long enough for the sensorgrams to reach equilibrium, and the dissociation time was 240 s. To carry out these SPR experiments, we employed the method known as ‘single‐cycle kinetics’ described in 2006 by Karlsson and co‐workers (Karlsson, Katsamba, Nordin, Pol, & Myszka, 2006). It consists in injecting the analyte at increasing concentrations, without regeneration steps between each sample injection to avoid that folded‐proteins can be damaged after regeneration steps. Equilibrium dissociation constants (KD) were calculated by fitting the data to a simple Langmuir binding isotherm using GraphPad Prism. For determination of the apparent KD, signals obtained at equilibrium were plotted as a function of compound concentration. […]

[2] = system: T2, syntenin‐Frizzled7 complex (GST-SyntFL / FZD7 peptide); experiment: HTRF assay, syntenin-Frizzled 7 interaction; format: biochemical, human
T2 construct: residues 1–298 or syntenin full‐length (FL) for HTRF assays; made in house; host or cells: E. coli ER2566
Protocol: HTRF assays were performed in white 96Well Small VolumeHiBase Polystyrene Microplates (Greiner) with a total working volume of […], as described previously (Milhas et al., 2016). Briefly, compounds were firstly dispensed into the wells at 400 µM for the primary screen or with serial DMSO dilutions for IC50 measurement assays. Primary screening assays have been performed in monoplicate while IC50 measurements were performed in triplicates. All HTRF reagents were purchased from CisBio Bioassays and reconstituted according to the supplier protocols. The plates were spun for 3 min at 500 × g and then incubated at 4°C for 16 h. The HTRF signals were recorded on a POLAR star Omega plate reader (BMG Labtech) with an excitation filter at 337 nm and fluorescence wavelength measurement at 620 and 665 nm, an integration delay of 60 µs and an integration time of 400 µs. Results were analysed with a two‐wavelength signal ratio: [intensity (665 nm)/intensity (620 nm)] × 10^4. Percentage of inhibition was calculated using the following equation: % inhibition = [(compound signal)–(min signal)]/[(max signal)–(min signal)] × 100, where ‘max signal’ is the signal ratio with the compound vehicle alone (DMSO) and ‘min signal’ the signal ratio without protein B. For IC50 measurements, values were normalized and fitted with Prism (GraphPad software) using the following equation: Y = 100/(1+((X/ IC50)ˆHill slope)).
The search strategy for PDZ2 syntenin inhibitors was based on the PDZ targeted library developed from Enamine compound collection. The PDZ targeted library was developed to cover virtually all PDZ domains. Consequently, to create the syntenin PDZ2 focused library we used two independent paths: docking of the PDZ targeted library against structures of syntenin PDZ2 available in Protein Data Bank and a random selection from the PDZ targeted library. The docking has produced 21 virtual hits, which were added to 118 randomly selected compounds (10% of the pan PDZ library). The resultant set of 139 compounds, syntenin PDZ library was subjected to experimental validation. The primary screen was performed at 400µM using a previously validated Homogeneous Time Resolved Fluorescence (HTRF) assay (Milhas et al., 2016). HTRF is based on Fluorescence Resonance Energy Transfer (FRET) between two fluorescent reagents. In the present case, Anti‐GST‐Terbium antibody and streptavidin‐bound Dynamic2 were used as donor and acceptor respectively. Interactions between GST PDZ‐fusion proteins and biotinylated peptides containing PDZ binding motifs were challenged with the potential inhibitors. In parallel, control experiments were performed with a biotinylated‐GST to verify that compounds were not interfering with the FRET signal in a non‐specific manner. To identify inhibitors of syntenin PDZ interactions, we tested for the effect of the 139 compounds on syntenin‐SDC2 and syntenin‐Frizzled7 complexes (Figure 1a; Table S1). When the HTRF signal dropped below 0.9, inhibition was considered as effective. […] Noteworthy, these compounds had no effect on other PDZ complexes like GRASP55‐JAM‐B or GRASP55‐JAM‐C and Erbin‐Erbb2 or Erbin‐P0071 (Figure 1c).

MCF‐7 SyntKO cells = experiment: Cancer cell viability (Annexin V/7-AAD flow cytometry), MCF-7 SyntKO; format: cell-based; conditions: concentrations up to 100 µM, 48 h
Protocol: The effects of the compounds C58 and SyntOFF were tested both on MCF‐7 and MCF‐7 SyntKO cells. Briefly, the cells were treated with increasing concentrations of the compounds for 48 h and early/late apoptosis was measured by using the FITC Annexin V apoptosis detection kit with 7‐AAD (Biolegend, San Diego, CA, USA) according to the manufacturer. Annexin V positive but 7‐AAD negative (early apoptotic cells) and Annexin V positive and 7‐AAD positive (late stage apoptosis) was determined by using FACS LSRII flow cytometer (BD Biosciences) and data were analysed with Flowjo software (Tree Star).

MCF‐7 cells = experiment: Soft agar colony formation assay; format: cell-based; conditions: wild-type MCF-7, 100 µM
Protocol: Agarose was melted in water and mixed with DMEM‐F12 medium pre‐incubated at 37°C to reach a 0.6% or a 0.36 % final concentration. A lower layer of 0.6% agarose was deposited in each well of a 96‐well plate except that the first and last rows and columns of the plate were filled with PBS to avoid drying. Agarose was allowed to cool for 15 min before the upper layer containing different concentrations of cells, a final concentration of 0.36% agarose and compounds (100 µM) was added. Compounds were added only once at the beginning of experiment. Each condition was tested in triplicate. Colonies were kept at 37°C in a 5% CO2 incubator and daily observed under microscope. At the end of the experiment, cells were tested for their ATP content, an indicator of their metabolic activity, using the Promega kit G7570. In this assay, ATP is used as a co‐factor for a luciferase reaction. Signals were analysed by measuring luminescence with a LUMIstar luminometer (BMG Labtech).

SMILES: CC(C)[C@H](NC(=O)CSc1ccc(Cl)cc1)C(=O)O [Compound C58]
- Kd [1]: 1.03 mM
- GST SyntFL Frizzled 7 (signal ratio) ([2]; 400µM compound, Figure 1c): 0.38
- HTRF ASSAY GST-SyntFL FZD7 (HTRF signal ratio) ([2]; primary screen, 400 µM compound, signal below 0.9 considered effective inhibition, Table S1): 0.39
- toxicity (cell viability) (MCF‐7 SyntKO cells): not toxic
- colony formation in soft agar (MCF‐7 cells): decreases

Reference: PMC7737769, “Pharmacological inhibition of syntenin PDZ2 domain impairs breast cancer cell activities and exosome loading with syndecan and EpCAM cargo” (Journal of Extracellular Vesicles, 2020)
